# Test results published in ChEMBL document CHEMBL1201862, “PubChem BioAssay data set” (2004).
# Active and inactive are the calls of the source.
# Tests used:
# Format in all cases: functional
# [1] = molecular target: T1, Hexokinase HKDC1 (Homo sapiens, UniProt Q2TB90); test: HKDC1 hexokinase inhibitors, dose response, biochemical, W721R variant (AID 504729)
# T1 sequence (Q2TB90 whole entry): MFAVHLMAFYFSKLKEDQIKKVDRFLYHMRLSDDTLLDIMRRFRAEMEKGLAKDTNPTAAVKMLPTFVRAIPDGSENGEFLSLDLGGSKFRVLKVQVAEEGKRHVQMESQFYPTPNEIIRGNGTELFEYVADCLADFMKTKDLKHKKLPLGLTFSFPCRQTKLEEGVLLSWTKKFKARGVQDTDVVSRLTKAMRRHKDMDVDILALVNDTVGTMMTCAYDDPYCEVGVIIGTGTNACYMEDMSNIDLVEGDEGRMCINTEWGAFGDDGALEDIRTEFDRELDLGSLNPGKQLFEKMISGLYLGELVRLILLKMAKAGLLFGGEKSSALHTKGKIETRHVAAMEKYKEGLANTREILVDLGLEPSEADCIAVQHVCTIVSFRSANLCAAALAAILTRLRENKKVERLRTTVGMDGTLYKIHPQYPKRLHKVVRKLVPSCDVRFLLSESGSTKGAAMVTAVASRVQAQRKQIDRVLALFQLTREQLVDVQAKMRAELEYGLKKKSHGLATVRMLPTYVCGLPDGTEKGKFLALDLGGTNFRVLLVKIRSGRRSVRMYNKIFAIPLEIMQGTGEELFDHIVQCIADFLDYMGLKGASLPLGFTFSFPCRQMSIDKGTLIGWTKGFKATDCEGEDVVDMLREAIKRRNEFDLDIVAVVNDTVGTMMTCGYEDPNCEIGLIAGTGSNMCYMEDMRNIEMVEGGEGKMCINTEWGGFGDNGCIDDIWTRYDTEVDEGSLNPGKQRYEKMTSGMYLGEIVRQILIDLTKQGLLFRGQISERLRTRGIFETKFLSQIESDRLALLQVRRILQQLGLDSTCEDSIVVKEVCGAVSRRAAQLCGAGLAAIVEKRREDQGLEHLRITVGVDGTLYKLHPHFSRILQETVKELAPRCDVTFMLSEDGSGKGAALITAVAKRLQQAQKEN
# [2] = molecular target: T2, Sentrin-specific protease 6 (Homo sapiens, UniProt Q9GZR1);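 also: Luminescence-based dose-response confirmatory assay of SENP6 inhibition, following up an ultra-high-throughput screen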
# T2 sequence (Q9GZR1 whole entry): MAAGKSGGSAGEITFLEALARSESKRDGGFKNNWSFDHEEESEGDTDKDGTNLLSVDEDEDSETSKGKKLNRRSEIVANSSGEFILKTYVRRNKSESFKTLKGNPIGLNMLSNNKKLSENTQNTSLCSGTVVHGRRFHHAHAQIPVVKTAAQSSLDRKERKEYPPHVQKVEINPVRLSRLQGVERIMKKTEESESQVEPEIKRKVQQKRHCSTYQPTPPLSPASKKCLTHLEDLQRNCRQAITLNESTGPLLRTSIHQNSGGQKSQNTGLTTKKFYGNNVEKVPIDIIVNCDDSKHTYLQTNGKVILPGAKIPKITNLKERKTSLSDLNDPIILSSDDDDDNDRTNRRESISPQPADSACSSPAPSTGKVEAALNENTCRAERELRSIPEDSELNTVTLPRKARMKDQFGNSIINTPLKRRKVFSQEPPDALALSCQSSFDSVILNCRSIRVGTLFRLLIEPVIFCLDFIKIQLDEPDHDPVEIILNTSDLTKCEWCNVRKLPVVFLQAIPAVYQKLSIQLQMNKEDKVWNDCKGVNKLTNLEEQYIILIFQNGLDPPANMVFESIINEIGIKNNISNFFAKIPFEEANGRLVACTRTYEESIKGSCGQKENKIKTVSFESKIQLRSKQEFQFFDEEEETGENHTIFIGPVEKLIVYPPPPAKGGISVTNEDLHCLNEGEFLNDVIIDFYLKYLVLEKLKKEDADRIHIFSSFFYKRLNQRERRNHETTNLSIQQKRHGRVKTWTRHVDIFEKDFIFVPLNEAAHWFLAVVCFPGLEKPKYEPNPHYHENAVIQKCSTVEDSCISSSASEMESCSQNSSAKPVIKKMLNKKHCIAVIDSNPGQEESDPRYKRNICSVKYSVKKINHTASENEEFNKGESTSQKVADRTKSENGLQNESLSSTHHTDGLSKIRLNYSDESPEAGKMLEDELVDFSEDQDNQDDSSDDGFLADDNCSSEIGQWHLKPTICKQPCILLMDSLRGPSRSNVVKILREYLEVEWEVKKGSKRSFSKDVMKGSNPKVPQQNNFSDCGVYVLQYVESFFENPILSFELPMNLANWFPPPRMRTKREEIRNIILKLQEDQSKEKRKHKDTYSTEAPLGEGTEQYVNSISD
# [3] = molecular target: T3, Replicative DNA helicase DnaB (Mycobacterium tuberculosis, UniProt P9WMR3); test: DnaB intein splicing inhibitors, dose response, biochemical, cell-free fluorescence (AID 449749)
# T3 sequence (P9WMR3 whole entry): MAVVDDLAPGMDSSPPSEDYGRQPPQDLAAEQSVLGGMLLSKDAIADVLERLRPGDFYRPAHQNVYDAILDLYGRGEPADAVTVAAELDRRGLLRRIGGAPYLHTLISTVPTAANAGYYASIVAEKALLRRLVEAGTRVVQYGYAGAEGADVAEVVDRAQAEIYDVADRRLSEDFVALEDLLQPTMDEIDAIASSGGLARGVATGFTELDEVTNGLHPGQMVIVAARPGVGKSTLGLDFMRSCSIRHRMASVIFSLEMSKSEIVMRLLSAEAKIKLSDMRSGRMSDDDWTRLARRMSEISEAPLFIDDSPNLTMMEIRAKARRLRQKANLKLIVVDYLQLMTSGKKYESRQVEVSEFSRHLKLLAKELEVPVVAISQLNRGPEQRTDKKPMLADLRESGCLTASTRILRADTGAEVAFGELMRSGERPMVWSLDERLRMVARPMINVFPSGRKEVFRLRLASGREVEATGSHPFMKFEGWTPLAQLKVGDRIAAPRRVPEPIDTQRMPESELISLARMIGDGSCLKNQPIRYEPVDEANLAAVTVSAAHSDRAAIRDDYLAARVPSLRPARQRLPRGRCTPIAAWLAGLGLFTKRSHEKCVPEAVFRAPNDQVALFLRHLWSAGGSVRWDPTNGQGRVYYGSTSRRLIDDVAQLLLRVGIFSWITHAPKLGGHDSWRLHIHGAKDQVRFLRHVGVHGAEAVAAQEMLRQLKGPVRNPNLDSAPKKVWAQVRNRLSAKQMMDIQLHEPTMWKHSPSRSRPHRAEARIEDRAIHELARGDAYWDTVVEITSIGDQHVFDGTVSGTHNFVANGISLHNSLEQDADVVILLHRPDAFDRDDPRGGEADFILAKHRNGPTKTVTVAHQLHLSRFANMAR
Compound,IC50 [1],IC50 [2],AC50 [3]
NC(=O)C1CCN(C2=C(Cl)C(=O)c3ccccc3C2=O)CC1,25.9 µM (inactive),5.84 µM (active),0.617 µM (active)
O=c1c2ccccc2nc(/C=C/c2cccnc2)n1Cc1ccccc1,3.2 µM (active),–,9.28 µM (active)
O=C(O)c1ccc(N/N=C/c2ccc(OC(=O)c3ccccc3Cl)cc2)cc1,–,2.16 µM (active),–
COC(=O)c1ccccc1NC1=C/C(=N\S(=O)(=O)c2ccc(C(=O)O)cc2)c2ccccc2C1=O,3.84 µM (active),–,> 380 µM (inconclusive)
